Experimental data taken from US7067700B2, “Process for preparing sertraline hydrochloride polymorphic form II” (Fermion Oy, priority 2001, dated 2006).
Structures can show the parent of a compound that is named as a salt.

What was measured:
[1] = dissolution / solubility of sertraline hydrochloride polymorphic forms; assay type: physicochemical; settings: comparison of polymorphic forms; statement in words
[2] = claimed in the cited patent; cited from earlier work
[3] = claimed in the cited patent; cited from earlier work; remark: listed apart in the source
[4] = stability of sertraline hydrochloride polymorphic forms; assay type: physicochemical; settings: statement in words

For `CN[C@H]1CC[C@@H](c2ccc(Cl)c(Cl)c2)c2ccccc21.Cl` [Polymorphic form T1], the dissolution properties [1] is given as “dissolves better than forms I and II”, the “stability as claimed in U.S. Pat. No. 5,734,083” value [2] is given as “acceptable stable” and the “solubility in aqueous fluids as claimed in U.S. Pat. No. 5,734,083” value [3] is given as “enhanced solubility”.

In the case of `CN[C@H]1CC[C@@H](c2ccc(Cl)c(Cl)c2)c2ccccc21.Cl` [Form I], the “stability of the polymorph (comparison of forms)” value ([4]; compared with form II) is reported as “more stable” and the dissolution properties [1] is reported as “poor dissolution properties”.

In the case of `CNC1CCC(c2ccc(Cl)c(Cl)c2)c2ccccc21` (stereo not drawn) [(1S-cis)-4-(3,4-dichlorophenyl)-1,2,3,4-tetrahydro-N-methyl-1-naphtalenamine hydrochloride], the “stability of the polymorph” value ([4]; form II prepared by the method described, no test described) is reported as “stable”.
